For experiment [1], the target named is T1, PLCG1-NC tandem SH2 domains (Homo sapiens, UniProt P19174).
T1 construct: the tandem protein was included in our analysis with all internal amino acids linking the domains; 6X His; thioredoxin; made in house; host or cells: E. coli BL21(DE3)pLysS
T1 sequence (P19174 550-756 limits assumed): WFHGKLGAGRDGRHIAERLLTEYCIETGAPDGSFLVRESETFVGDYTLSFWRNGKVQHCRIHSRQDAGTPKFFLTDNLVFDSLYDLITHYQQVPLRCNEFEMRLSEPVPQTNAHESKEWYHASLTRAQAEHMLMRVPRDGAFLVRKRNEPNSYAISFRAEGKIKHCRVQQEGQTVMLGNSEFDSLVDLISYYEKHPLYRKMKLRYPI
In words: FP saturation binding assay. Particulars: high-confidence ErbB interactions.

Experiment [2] deals with T2, PTPN11-NC tandem SH2 domains (Homo sapiens, UniProt Q06124).
T2 sequence (Q06124 6-216 limits assumed): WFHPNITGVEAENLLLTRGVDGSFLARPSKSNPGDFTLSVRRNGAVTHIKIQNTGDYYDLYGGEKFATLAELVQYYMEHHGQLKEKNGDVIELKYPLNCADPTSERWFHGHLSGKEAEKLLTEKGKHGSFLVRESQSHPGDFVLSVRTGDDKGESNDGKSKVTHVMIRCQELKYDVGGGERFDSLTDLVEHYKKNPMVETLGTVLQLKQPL
In words: FP saturation binding assay.

The next experiment deals with T3, RASA1-N SH2 domain (Homo sapiens, UniProt P20936).
T3 sequence (P20936 181-272 limits assumed): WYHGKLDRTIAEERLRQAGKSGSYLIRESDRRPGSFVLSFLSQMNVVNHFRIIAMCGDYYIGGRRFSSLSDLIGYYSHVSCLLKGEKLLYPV
As to the kind of experiment: FP saturation binding assay.

In a further experiment the target is T4, PLCG1-C SH2 domain (Homo sapiens, UniProt P19174).
T4 construct: The 6X His-tagged SH2 domain proteins used in the assay, PLCG1-C, SHC4, VAV2; thioredoxin; made in house; host or cells: E. coli BL21(DE3)pLysS
T4 sequence (P19174 668-756 limits assumed): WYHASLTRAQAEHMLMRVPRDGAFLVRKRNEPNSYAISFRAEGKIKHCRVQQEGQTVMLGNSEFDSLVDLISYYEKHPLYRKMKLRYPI
In words: biochemical. The conditions noted are these: high-confidence ErbB interactions. The experiment is classed as binding.

Where [3] appears, read: Protein PLCG1-NC, FP saturation binding, mean over replicate hits.
[4] abbreviates: protein PLCG1-NC, FP, mean of replicate hits.

The structures appear in SMILES notation. Residues, ends and D or L forms follow the SMILES beside them.

With `CC(C)C[C@H](NC(=O)[C@H](Cc1ccc(OP(=O)(O)O)cc1)NC(=O)[C@H](CCC(=O)O)NC(=O)[C@H](CCC(=O)O)NC(=O)[C@H](C)NC(=O)[C@@H](N)CC(=O)O)C(=O)N[C@H](C(=O)N1CCC[C@H]1C(=O)N[C@@H](CCC(N)=O)C(=O)N[C@@H](CCC(N)=O)C(=O)NCC(=O)N[C@@H](Cc1ccccc1)C(=O)N[C@@H](CC(=O)O)C(=O)O)C(C)C` [ErbB2 1023 13-mer] (HELM PEPTIDE1{D.A.E.E.[O=C([C@H](Cc1ccc(OP(=O)(O)O)cc1)N[*:1])[*:2]].L.V.P.Q.Q.G.F.D}$$$$V2.0), the Kd in experiment [1] (setting [3]) was found to be 1.3 µM; in experiment [2] it was 10.6 µM; at RASA1-N SH2 domain, 5.49 µM.
On to `CC(C)[C@H](NC(=O)[C@H](CC(=O)O)NC(=O)[C@@H]1CCCN1C(=O)[C@H](CCC(N)=O)NC(=O)[C@H](CC(N)=O)NC(=O)[C@@H](NC(=O)[C@H](Cc1ccc(OP(=O)(O)O)cc1)NC(=O)[C@H](CCC(=O)O)NC(=O)[C@@H]1CCCN1C(=O)[C@H](CCC(N)=O)NC(=O)[C@@H]1CCCN1)C(C)C)C(=O)N[C@@H](CCCNC(=N)N)C(=O)N[C@@H](CC(=O)O)C(=O)O` [ErbB2 1139 13-mer] (HELM PEPTIDE1{P.Q.P.E.[O=C([C@H](Cc1ccc(OP(=O)(O)O)cc1)N[*:1])[*:2]].V.N.Q.P.D.V.R.D}$$$$V2.0), for which the figures for the Kd in experiment [1] (setting [3]) and in experiment [2] were 3.38 µM and 8.71 µM, respectively.
Take `CC(C)C[C@H](NC(=O)[C@H](CC(N)=O)NC(=O)[C@@H](N)CC(=O)O)C(=O)N[C@@H](Cc1ccc(O)cc1)C(=O)N[C@@H](Cc1ccc(OP(=O)(O)O)cc1)C(=O)N[C@@H](Cc1c[nH]c2ccccc12)C(=O)N[C@@H](CC(=O)O)C(=O)N[C@@H](CCC(N)=O)C(=O)N[C@@H](CC(=O)O)C(=O)N1CCC[C@H]1C(=O)N1CCC[C@H]1C(=O)N[C@@H](CCC(=O)O)C(=O)N[C@@H](CC(=O)O)C(=O)O` [ErbB2 1222 13-mer] (HELM PEPTIDE1{D.N.L.Y.[O=C([C@H](Cc1ccc(OP(=O)(O)O)cc1)N[*:1])[*:2]].W.D.Q.D.P.P.E.D}$$$$V2.0): the Kd on PLCG1-C SH2 domain (Protein PLCG1-C, FP saturation binding, mean over replicate hits) stood at 0.78 µM; in experiment [1] (setting [3]), 1.28 µM; in experiment [2] it was 9.45 µM; at RASA1-N SH2 domain, 4.29 µM.
Consider `CSCC[C@H](NC(=O)[C@H](Cc1ccc(OP(=O)(O)O)cc1)NC(=O)[C@H](CCC(=O)O)NC(=O)[C@H](Cc1ccc(O)cc1)NC(=O)CNC(=O)[C@@H](N)CC(C)C)C(=O)N[C@@H](CC(=O)O)C(=O)N[C@H](C(=O)NCC(=O)N[C@@H](CO)C(=O)N[C@@H](CC(=O)O)C(=O)N[C@@H](CC(C)C)C(=O)N[C@@H](CC(=O)O)C(=O)O)C(C)C` [ErbB3 1224 13-mer] (HELM PEPTIDE1{L.G.Y.E.[O=C([C@H](Cc1ccc(OP(=O)(O)O)cc1)N[*:1])[*:2]].M.D.V.G.S.D.L.D}$$$$V2.0), for which the values for the Kd (in experiment [1] (setting [4]); on RASA1-N SH2 domain) were 4.22 µM and 1.24 µM, respectively.
Consider `CSCC[C@H](NC(=O)[C@H](CCC(=O)O)NC(=O)[C@H](CCC(=O)O)NC(=O)[C@H](Cc1ccc(OP(=O)(O)O)cc1)NC(=O)CNC(=O)[C@H](CCC(N)=O)NC(=O)[C@H](CCC(=O)O)NC(=O)[C@@H](N)CO)C(=O)N[C@@H](CCCNC(=N)N)C(=O)N[C@@H](C)C(=O)N[C@@H](Cc1ccccc1)C(=O)N[C@@H](CCC(N)=O)C(=O)N[C@@H](CC(=O)O)C(=O)O` [ErbB3 1289 13-mer] (HELM PEPTIDE1{S.E.Q.G.[O=C([C@H](Cc1ccc(OP(=O)(O)O)cc1)N[*:1])[*:2]].E.E.M.R.A.F.Q.D}$$$$V2.0), for which the figures for the Kd (in experiment [1] (setting [4]); on RASA1-N SH2 domain) were 6.14 µM and 8.83 µM, respectively.
As for `CSCC[C@H](NC(=O)[C@H](Cc1ccc(OP(=O)(O)O)cc1)NC(=O)CNC(=O)[C@H](CCC(=O)O)NC(=O)[C@H](CCC(=O)O)NC(=O)[C@H](CC(=O)O)NC(=O)[C@H](CC(C)C)NC(=O)[C@H](CCC(=O)O)NC(=O)CNC(=O)[C@H](CCCNC(=N)N)NC(=O)[C@@H]1CCCN1)C(=O)N[C@H](C(=O)N1CCC[C@H]1C(=O)N[C@@H](CCSC)C(=O)N[C@@H](CCCNC(=N)N)C(=O)N[C@@H](CC(=O)O)C(=O)N[C@@H](CCCCN)C(=O)N[C@@H](CC(=O)O)C(=O)O)[C@@H](C)O` [ErbB4 1150 18-mer] (HELM PEPTIDE1{P.R.G.E.L.D.E.E.G.[O=C([C@H](Cc1ccc(OP(=O)(O)O)cc1)N[*:1])[*:2]].M.T.P.M.R.D.K.D}$$$$V2.0), the Kd at PLCG1-C SH2 domain (protein PLCG1-C, FP, mean of replicate hits) is 3.1 µM; in experiment [1] (setting [4]), 2.82 µM; on RASA1-N SH2 domain, 0.61 µM.
For the compound `CC(C)C[C@H](NC(=O)[C@H](Cc1ccc(OP(=O)(O)O)cc1)NC(=O)[C@H](CC(C)C)NC(=O)[C@@H]1CCCN1C(=O)[C@H](CCC(=O)O)NC(=O)[C@H](CC(N)=O)NC(=O)[C@@H](NC(=O)[C@H](Cc1ccc(O)cc1)NC(=O)[C@H](CCC(=O)O)NC(=O)[C@H](CC(=O)O)NC(=O)[C@@H](N)CCC(=O)O)C(C)C)C(=O)N[C@@H](CC(N)=O)C(=O)N[C@H](C(=O)N[C@@H](Cc1ccccc1)C(=O)N[C@@H](C)C(=O)N[C@@H](CC(N)=O)C(=O)N[C@H](C(=O)N[C@@H](CC(=O)O)C(=O)O)[C@@H](C)O)[C@@H](C)O` [ErbB4 1208 18-mer] (HELM PEPTIDE1{E.D.E.Y.V.N.E.P.L.[O=C([C@H](Cc1ccc(OP(=O)(O)O)cc1)N[*:1])[*:2]].L.N.T.F.A.N.T.D}$$$$V2.0), the Kd came out at 2.07 µM at PLCG1-C SH2 domain (protein PLCG1-C, mean of replicate hits); 0.97 µM in experiment [1] (protein PLCG1-NC, mean of replicate hits); 6.4 µM at RASA1-N SH2 domain.

These data come from article PMC3433420 (PLoS ONE, 2012).
